Source: ChEMBL document CHEMBL1201862, “PubChem BioAssay data set” (2004)
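Assay format: 96-well plates, 48-hour exposure. The concentration for 50% growth inhibition is given as GI50.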 Activity calls are given as the source filed them. Cut-off read from the data, not from the text of the source: active = GI50 up to about 1.1 µM and inactive = higher.

Assays:
Assay in all cases: inhibition of tumour cell growth, NCI panel, 48 h
[1] = tested on: CAKI-1
[2] = tested on: SR
[3] = tested on: HT-29
[4] = tested on: SF-295
[5] = tested on: NCI/ADR-RES
[6] = tested on: MDA-MB-231
[7] = tested on: SF-268
[8] = tested on: OVCAR-3
[9] = tested on: UACC-257
[10] = tested on: 786-0
[11] = tested on: COLO 205
[12] = tested on: HCC 2998
[13] = tested on: SK-OV-3
[14] = tested on: SK-MEL-28
[15] = tested on: HCT-116
[16] = tested on: NCI-H460
[17] = tested on: LOX IMVI
[18] = tested on: DU-145
[19] = tested on: Malme-3M
[20] = tested on: SK-MEL-2

| SMILES | GI50 [1] | GI50 [2] | GI50 [3] | GI50 [4] | GI50 [5] | GI50 [6] | GI50 [7] | GI50 [8] | GI50 [9] | GI50 [10] | GI50 [11] | GI50 [12] | GI50 [13] | GI50 [14] | GI50 [15] | GI50 [16] | GI50 [17] | GI50 [18] | GI50 [19] | GI50 [20] |
| --- | --- | --- | --- | --- | --- | --- | --- | --- | --- | --- | --- | --- | --- | --- | --- | --- | --- | --- | --- | --- |
| C[N+]1(CC[N+]2(C)CCCC2c2cccnc2)CCCC1c1cccnc1 (stereo not given) | > 100 µM (inactive) | > 100 µM (inactive) | 50.6 µM (inactive) | > 100 µM (inactive) | > 100 µM (inactive) | > 100 µM (inactive) | > 100 µM (inactive) | > 100 µM (inactive) | 76.2 µM (inactive) | 30.4 µM (inactive) | 86.1 µM (inactive) | > 100 µM (inactive) | > 100 µM (inactive) | 61.8 µM (inactive) | 96.6 µM (inactive) | > 100 µM (inactive) | > 100 µM (inactive) | > 100 µM (inactive) | 59.3 µM (inactive) | > 100 µM (inactive) |
| O=C(Nc1ccc(Cl)cc1)c1cc(S(=O)(=O)NC2=Nc3ccc(Cl)cc3C(c3ccccc3)N2)c(SSc2cc(Cl)c(C(=O)Nc3ccc(Cl)cc3)cc2S(=O)(=O)NC2=Nc3ccc(Cl)cc3C(c3ccccc3)N2)cc1Cl (stereo not given) | > 100 µM (inactive) | 16.5 µM (inactive) | > 100 µM (inactive) | > 100 µM (inactive) | > 100 µM (inactive) | 24.3 µM (inactive) | > 100 µM (inactive) | > 100 µM (inactive) | > 100 µM (inactive) | > 100 µM (inactive) | > 100 µM (inactive) | > 100 µM (inactive) | > 100 µM (inactive) | > 100 µM (inactive) | > 100 µM (inactive) | > 100 µM (inactive) | > 100 µM (inactive) | > 100 µM (inactive) | > 100 µM (inactive) | > 100 µM (inactive) |
| COc1c(O)c(O)cc2c1-c1ccc(OC)c(=O)cc1C(NC(C)=O)CC2 (stereo not given) | 24.2 µM (inactive) | 3.24 µM (inactive) | 3.07 µM (inactive) | 5.13 µM (inactive) | 29 µM (inactive) | 4.94 µM (inactive) | 5.52 µM (inactive) | 2.21 µM (inactive) | 7.26 µM (inactive) | 8.04 µM (inactive) | 3.13 µM (inactive) | 5.38 µM (inactive) | 5.35 µM (inactive) | 8.07 µM (inactive) | 3.94 µM (inactive) | 6.07 µM (inactive) | 4.84 µM (inactive) | 12.3 µM (inactive) | 5.7 µM (inactive) | 3.15 µM (inactive) |
| CCOc1cc(NC(C)=O)ccc1C(=O)NN1C(=O)C(Cl)C1c1ccccc1 (stereo not given) | 15.4 µM (inactive) | 4.34 µM (inactive) | 16.6 µM (inactive) | 20.4 µM (inactive) | 25.1 µM (inactive) | 13.2 µM (inactive) | 16.7 µM (inactive) | 14.7 µM (inactive) | 11.9 µM (inactive) | 14.6 µM (inactive) | 14.2 µM (inactive) | 17.4 µM (inactive) | 16.9 µM (inactive) | 16.9 µM (inactive) | 17.5 µM (inactive) | 16 µM (inactive) | 1.37 µM (inactive) | 17.6 µM (inactive) | 11.2 µM (inactive) | 14.3 µM (inactive) |
| NNC(=O)c1c(Cl)c(Cl)c(Cl)c(Cl)c1-c1nc2ccccc2[nH]1 | 13.2 µM (inactive) | 2.63 µM (inactive) | 14.8 µM (inactive) | 4.91 µM (inactive) | 6.34 µM (inactive) | 21.3 µM (inactive) | 17.4 µM (inactive) | 6.64 µM (inactive) | 12.6 µM (inactive) | 18.5 µM (inactive) | 16.4 µM (inactive) | 8.63 µM (inactive) | 15.7 µM (inactive) | 15.8 µM (inactive) | 13.2 µM (inactive) | 11.8 µM (inactive) | 12.7 µM (inactive) | 13.2 µM (inactive) | 14.3 µM (inactive) | 6.41 µM (inactive) |
| Cn1c(NN)nc(-c2ccc([N+](=O)[O-])cc2)c(C#N)c1=O | 26.2 µM (inactive) | 18.7 µM (inactive) | 12.8 µM (inactive) | 16.1 µM (inactive) | 31 µM (inactive) | 12.7 µM (inactive) | 16 µM (inactive) | 17.1 µM (inactive) | 15.7 µM (inactive) | 14.2 µM (inactive) | 20 µM (inactive) | 13.7 µM (inactive) | 14.9 µM (inactive) | 12.5 µM (inactive) | 12.8 µM (inactive) | 17.3 µM (inactive) | 17.1 µM (inactive) | 16.4 µM (inactive) | 16.1 µM (inactive) | 22.2 µM (inactive) |
| O=C(CCSC1=NCCCN1)c1ccc(F)cc1 | 17.2 µM (inactive) | 3.3 µM (inactive) | 20.2 µM (inactive) | 37.8 µM (inactive) | 28.1 µM (inactive) | 21.5 µM (inactive) | 22.9 µM (inactive) | 22.9 µM (inactive) | 18.8 µM (inactive) | 4.02 µM (inactive) | 5.98 µM (inactive) | 18.6 µM (inactive) | 21.3 µM (inactive) | 18.7 µM (inactive) | 20.1 µM (inactive) | 22 µM (inactive) | 18.9 µM (inactive) | 17.4 µM (inactive) | 7.26 µM (inactive) | 18.2 µM (inactive) |
| Cc1ccc(/N=N/c2c(C)nn(C(=O)CC(=O)Nc3ccc(Cl)cc3)c2C)cc1C | > 100 µM (inactive) | 18.8 µM (inactive) | > 100 µM (inactive) | 48.3 µM (inactive) | > 100 µM (inactive) | 24.3 µM (inactive) | 37.2 µM (inactive) | > 100 µM (inactive) | > 100 µM (inactive) | 53 µM (inactive) | 90.4 µM (inactive) | > 100 µM (inactive) | 16.9 µM (inactive) | > 100 µM (inactive) | 49.2 µM (inactive) | > 100 µM (inactive) | 96.8 µM (inactive) | > 100 µM (inactive) | 85.5 µM (inactive) | 77.8 µM (inactive) |
| CCCc1nc(Cl)nc(Cl)c1Cl | 0.251 µM (active) | < 0.0154 µM (active) | 0.269 µM (active) | 2.33 µM (inactive) | 0.32 µM (active) | 0.665 µM (active) | 1.85 µM (inactive) | 0.129 µM (active) | 0.615 µM (active) | 0.127 µM (active) | 0.232 µM (active) | 1.08 µM (active) | 3.01 µM (inactive) | 0.472 µM (active) | 0.259 µM (active) | 0.505 µM (active) | 0.0865 µM (active) | 2.41 µM (inactive) | 0.453 µM (active) | 0.291 µM (active) |
| OC1(c2ccc3ccccc3c2)c2ccc3ccccc3c2C2=NCCN21 (stereo not given) | > 100 µM (inactive) | 36.8 µM (inactive) | > 100 µM (inactive) | 41.4 µM (inactive) | 37.1 µM (inactive) | 76.4 µM (inactive) | 54.3 µM (inactive) | > 100 µM (inactive) | > 100 µM (inactive) | 24.8 µM (inactive) | > 100 µM (inactive) | 74.1 µM (inactive) | > 100 µM (inactive) | > 100 µM (inactive) | 34.6 µM (inactive) | 23.6 µM (inactive) | 91.8 µM (inactive) | > 100 µM (inactive) | > 100 µM (inactive) | > 100 µM (inactive) |
